The results in this text go back to PubChem BioAssay AID1645848.

In brackets after ≈: the same amount, converted by molar mass. Bounds are passed on as bounds.

For the series the following is noted: buffer; pH 7.4; 6.0 h; 150.0 µM.
What is called kinetic solubility is the concentration staying in solution when a stock, usually in DMSO, is diluted into the medium. `Cc1noc(C)c1-c1ccc(Nc2nc(-c3ccncc3)nc3ccccc23)cc1F` had a kinetic solubility of under 1 µg/mL.
Regarding `Cc1cnc(-c2ccccc2C2COC2)nc1NCc1ccc(-n2ccnn2)cc1`, the solubility (kinetic) was over 59 µg/mL.
Regarding `CC(=O)c1c(C)[nH]c(C(=O)Nc2cccc([S+](=O)([O-])Nc3ccccc3)c2)c1C`, the solubility (kinetic) amounted to 2.16 µg/mL (≈ 5.24 µM).
With `CCOC(=O)c1cc(-c2ccco2)nc2c1c(C)nn2CCC#N`, the kinetic solubility is 9.9 µg/mL (≈ 30.5 µM).
With `Cc1nn(CCc2nc(-c3ccc4ccccc4c3)cs2)c2[nH]c(=O)cc(C(F)(F)F)c12`, the solubility (kinetic) is under 1 µg/mL.
For the compound `Cc1ccnc(NC(=S)N2CCN(c3ccc(C(F)(F)F)cc3[N+](=O)[O-])CC2)c1`, the kinetic solubility was 4.11 µg/mL (≈ 9.67 µM).
`CCc1ccc(-n2nnc(-c3nsc(NC(=O)c4ccccc4Cl)n3)c2C)cc1` returned a solubility (kinetic) of under 1 µg/mL.
Compound `O=C1CCCC2=C1C(c1[nH]ncc1Br)N=C(Nc1nc3ccccc3o1)N2` (stereo unspecified) returned a solubility (kinetic) of under 1 µg/mL.
In turn, `CN1C(=O)c2ccccc2[S@](=O)c2ccc(C(=O)NCc3cccnc3)cc21` displayed a kinetic solubility of 1.35 µg/mL (≈ 3.45 µM).
`Cc1cccc(-c2noc([C@@H]3Cc4nc[nH]c4CN3C(=O)CC(C)(C)CC(=O)O)n2)c1` showed a solubility (kinetic) of over 63 µg/mL.
As to `CC(C)c1ccccc1-c1ncc(F)c(NCc2ccc(-c3cccnc3)s2)n1`, the solubility (kinetic) was found to be 0.132 µg/mL (≈ 0.326 µM).
`O=C(NCc1cccs1)c1cn2cc(-c3ccccc3)sc2n1` came in with a solubility (kinetic) of under 1 µg/mL.
Take `Cc1cccc(CS(=O)(=O)c2ncc(Cl)c(C(=O)Nc3nc4ccc(F)cc4s3)n2)c1`: the kinetic solubility was under 1 µg/mL.
`Cc1ccc(NC(=O)c2cc(-c3ccc(C)o3)nc3ccccc23)nc1` showed a kinetic solubility of under 1 µg/mL.
Under `O=C(Nc1cccc(OC(F)(F)F)c1)c1cc(-c2ccc[nH]2)n[nH]1` stands 10.8 µg/mL (≈ 32 µM).
For `CC(=O)Nc1cc(-c2nc(Nc3ccc(F)c(F)c3)c3ccccc3n2)ccn1`, the solubility (kinetic) is under 1 µg/mL.
In turn, `NC(=O)C1CCN(c2nc(-c3cccnc3)cs2)CC1` showed a kinetic solubility of over 43 µg/mL.
For `Cc1cccc(CNc2ccc(S(=O)(=O)Nc3nccs3)cc2)c1O`, the solubility (kinetic) is over 55 µg/mL.
Consider `O=S(=O)(Nc1nccs1)c1ccc(NCc2cccc(Br)c2O)cc1`, for which the solubility (kinetic) came out at 36.3 µg/mL (≈ 82.5 µM).
As to `CC(C)N(CCCNC(=O)Nc1ccc(C(C)(C)C)cc1)C[C@H]1O[C@@H](n2ccc3c(N)ncnc32)[C@H](O)[C@@H]1O`, the kinetic solubility was over 80 µg/mL.
Under `COc1ccc2[nH]c(S(=O)Cc3ncc(C)c(OC)c3C)nc2n1` (stereo unspecified) stands over 51 µg/mL.
Consider `Cc1ccc(S(=O)(=O)Nc2cnccc2C(=O)Nc2nc(-c3ccccc3Cl)cs2)cc1`, for which the kinetic solubility was 0.005 µg/mL (≈ 0.0103 µM).
Under `CC(=O)c1c(C)[nH]c(C(=O)Nc2cccc(S(=O)(=O)N3CCCCCC3)c2)c1C` stands 2.11 µg/mL (≈ 5.05 µM).
In turn, `CC(=O)c1c(C)[nH]c(C(=O)N(C)C)c1C` came in with a solubility (kinetic) of over 31 µg/mL.
Compound `COc1ccc(C2Nc3ccccc3C(=O)N2Cc2ccco2)cc1` (stereo unspecified) registered a kinetic solubility of 12.2 µg/mL (≈ 36.4 µM).
The compound `COC(=O)CSc1nc(-c2ccccc2)cc(-c2ccco2)c1C#N` yielded a solubility (kinetic) of under 1 µg/mL.
In turn, `Cc1ccc(S(=O)(=O)Nc2cnccc2C(=O)Nc2nc(-c3ccc(Cl)cc3)cs2)cc1` registered a solubility (kinetic) of under 1 µg/mL.
Compound `COc1ccc(-c2csc(N3CCC(C(N)=O)CC3)n2)cc1OC` displayed a kinetic solubility of 17.5 µg/mL (≈ 50.5 µM).
The compound `COc1ccnc(NC(=S)N2CCN(c3cccc(C(F)(F)F)c3)CC2)c1` registered a solubility (kinetic) of 13 µg/mL (≈ 32.7 µM).
Consider `C[C@]1(CO)CN(c2cc(C(=O)Nc3ccc4c(c3)-c3c(c(C(N)=O)nn3-c3ccc(F)cc3)CC4)c(Cl)cn2)C[C@@]1(C)CO`, for which the solubility (kinetic) was determined as 18.5 µg/mL (≈ 29.8 µM).
As to `CN(C)CC(=O)NC1CCCc2c1cnn2-c1ccc(F)cc1F` (stereo unspecified), the solubility (kinetic) was over 33 µg/mL.
On to `Fc1cc(Nc2nc(-c3ccncc3)nc3ccccc23)ccc1-c1cccc(OC(F)F)c1`, for which the kinetic solubility was under 1 µg/mL.
Take `COc1cc2nccc(Oc3ccc(NC(=O)C4(C(=O)Nc5ccc(F)cc5)CC4)cc3)c2cc1OC`: the kinetic solubility is under 1 µg/mL.
`Cc1ccc(NC(=O)CSc2ncc(S(=O)(=O)c3ccc(C(C)C)cc3)c(=O)[nH]2)cc1C` came in with a kinetic solubility of over 70 µg/mL.
The compound `CC[C@H](NC(=O)[C@H](C)NC)C(=O)N1C[C@@H](O)C[C@H]1Cc1c(-c2[nH]c3cc(F)ccc3c2C[C@@H]2C[C@H](O)CN2C(=O)[C@H](CC)NC(=O)[C@H](C)NC)[nH]c2cc(F)ccc12` returned a kinetic solubility of 75.2 µg/mL (≈ 93.2 µM).
Next, `Cc1ccccc1C(=O)N1CCc2cc(N3CCC(NC(=O)Cc4ccccc4)C3)ccc21` (stereo unspecified): 5.59 µg/mL (≈ 12.7 µM).
Turning to `c1ccc(-c2cn[nH]c2)cc1`, the solubility (kinetic) was over 14 µg/mL.
In the case of `COc1ccc(NC(=O)c2[nH]c(C)c(C(C)=O)c2C)cc1S(=O)(=O)Nc1cccc(C#N)c1`, the solubility (kinetic) worked out at 2.28 µg/mL (≈ 4.9 µM).
Under `Cc1ccc(CN2CCOC[C@H]2c2ncc(-c3cccc(F)c3)[nH]2)cc1` stands 10.4 µg/mL (≈ 29.7 µM); under `CC(=O)c1c(C)[nH]c(C(=O)Nc2cccc(S(=O)(=O)N3CCCCC3)c2)c1C`, 4.57 µg/mL (≈ 11.3 µM); under `CCOc1ccc(CCNC(=O)c2ccc3ccccc3n2)cc1OCC`, 8.84 µg/mL (≈ 24.3 µM).
Take `COc1ccc(OC)c(CN2CCNc3cc(Nc4ccccc4)ncc3C2)c1`: the kinetic solubility was over 86 µg/mL.
Compound `CC(=O)c1ccc(N2CCN(S(=O)(=O)c3ccc4c(c3)n(C)c(=O)n4C)CC2)cc1` registered a kinetic solubility of 2.6 µg/mL (≈ 6.07 µM).
Compound `CCOc1ccc(CCNC(=O)c2ccc(C(=O)c3ccccc3)cc2)cc1OCC` yielded a solubility (kinetic) of under 1 µg/mL.
`COc1ccc(CCNc2ncnc3onc(C)c23)c(OC)c1` returned a kinetic solubility of 9.08 µg/mL (≈ 28.9 µM).
Turning to `Cc1cccc(S(=O)(=O)c2cn(Cc3ccccc3)c3cc(N4CCCC(C)C4)c(F)cc3c2=O)c1` (stereo unspecified), the solubility (kinetic) was under 1 µg/mL.
As to `COc1cc(NS(=O)(=O)c2ccc(C)cc2)c(C(=O)Nc2nc(-c3ccccc3)cs2)cc1OC`, the solubility (kinetic) is under 1 µg/mL.
Regarding `CC(C)(C)CC(C)(C)c1ccc(O)cc1`, the solubility (kinetic) amounted to 2.09 µg/mL (≈ 10.1 µM).
Next, `O=C(CCS(=O)(=O)c1nc(-c2cccs2)cc(C(F)(F)F)n1)Nc1ccc(OC(F)(F)F)cc1`: 11.5 µg/mL (≈ 21.8 µM); `Cc1cn2c(-c3cn[nH]c3)cnc2c(Nc2ccc(C(=O)N3CCNCC3)cc2F)n1`: 13.4 µg/mL (≈ 31.8 µM).
`Cc1ccc(-c2cc(C(=O)Nc3ccc(C#N)cc3)c3ccccc3n2)cc1C`: the solubility (kinetic) is under 1 µg/mL.
Compound `CSc1cc2c(s1)c1cnn(Cc3cccc(N)c3)c(=O)c1n2C` returned a kinetic solubility of under 1 µg/mL.
With `NC(=O)C1CCN(c2nnc(-c3ccc4c(c3)OCCCO4)s2)CC1`, the kinetic solubility is 9.84 µg/mL (≈ 27.3 µM).
`O=c1c2c([nH]c3ccc(Br)cc13)CCCC2` gave a solubility (kinetic) of 4.86 µg/mL (≈ 17.5 µM).
For `NC(=O)C1CCN(c2cc(-c3ccc4c(c3)OCCCO4)ncn2)CC1`, the solubility (kinetic) was over 52 µg/mL.
Compound `Cc1c(C)n(Cc2ccc(-c3ccccc3C(=O)O)cc2)c2ccc(C(=O)N[C@@H](C)c3ccc([N+](=O)[O-])cc3)cc12` came in with a solubility (kinetic) of 44 µg/mL (≈ 80.3 µM).
For the compound `O=c1c(O)c(-c2ccc(O)cc2)oc2cc(O)cc(O)c12`, the kinetic solubility amounted to 1.35 µg/mL (≈ 4.73 µM).
On to `NC(=O)C1CCN(c2nc(-c3ccccc3C(F)(F)F)cs2)CC1`, for which the kinetic solubility is over 52 µg/mL.
In turn, `Cc1ccc(-c2csc(N3CCC(C(N)=O)CC3)n2)cc1` had a solubility (kinetic) of 32.9 µg/mL (≈ 109 µM).
Under `CCCc1ccc(-c2csc(NC(=O)c3ccncc3NS(=O)(=O)c3ccc(C)cc3)n2)cc1` stands under 1 µg/mL; under `COC(=O)c1ccc(O)c2ncc(N3CCN(C)CC3)cc12`, over 30 µg/mL.
`CCc1cccc(-n2nnc(-c3nsc(NC(=O)c4cccc(OC)c4)n3)c2C)c1` returned a solubility (kinetic) of under 1 µg/mL.
On to `O=C(O)C(=O)O.Oc1ccccc1NCC(O)Cn1ccc2ccccc21` (stereo unspecified), for which the solubility (kinetic) came out at 8.51 µg/mL.
Take `Clc1ccccc1-c1nc(NCc2ccc(-c3cccnc3)cc2)c2ccccc2n1`: the solubility (kinetic) was under 1 µg/mL.
`CCc1ccc(C2C(C(=O)Nc3ccccc3OC)=C(C)Nc3c(C(=O)Nc4ccc(C)cc4)cnn32)cc1` (stereo unspecified) yielded a kinetic solubility of 5.74 µg/mL (≈ 11 µM).
With `Oc1cccc2nc3ccccc3nc12`, the solubility (kinetic) was over 29 µg/mL.
Regarding `CCOC(=O)c1nn(-c2ccc(OC)cc2)c(=O)c2c(N)scc12`, the kinetic solubility was 5.68 µg/mL (≈ 16.5 µM).
Next, `C[S+](=O)([O-])c1ccc(-c2nc(C(=O)N3CCOCC3)n3ccccc23)cc1`: over 57 µg/mL; `CCN(CC)CCNC(=O)c1c(C)[nH]c(C=C2C(=O)Nc3ccc(F)cc32)c1C`: over 59 µg/mL; `COc1cccc(CNC(=O)CCCn2nc(C)c3c(C)n(-c4ccc(C)cc4)nc3c2=O)c1OC`: 2.58 µg/mL (≈ 5.26 µM).
Take `CCOc1ccc(CCNC(=O)c2ccc(C3(C(F)(F)F)N=N3)cc2)cc1OCC`: the kinetic solubility was under 1 µg/mL.
Under `COc1ccccc1CNc1ccc(S(=O)(=O)Nc2nccs2)cc1` stands 37.4 µg/mL (≈ 99.7 µM); under `CNc1ncc(-c2cccc3ccccc23)o1`, 25.4 µg/mL (≈ 113 µM).
For `CCCSc1nc(N[C@@H]2C[C@H]2c2ccc(F)c(F)c2)c2nnn([C@@H]3C[C@H](OCCO)[C@@H](O)[C@H]3O)c2n1`, the kinetic solubility was under 1 µg/mL.
In turn, `CC(Nc1nc(N2CCN(S(C)(=O)=O)CC2)nc2ccccc12)c1ccccc1` (stereo unspecified) returned a solubility (kinetic) of 11 µg/mL (≈ 26.8 µM).
With `COc1cccc(CNc2ccc(S(=O)(=O)Nc3ccc(N4CCNCC4)cc3)cc2)c1O`, the kinetic solubility amounted to 58.3 µg/mL (≈ 124 µM).
For the compound `O=[N+]([O-])c1cccc(CNc2ccc(S(=O)(=O)Nc3nccs3)cc2)c1O`, the solubility (kinetic) stood at 10.3 µg/mL (≈ 25.2 µM). Against the preceding compound, the solubility kinetic is about 5.7-fold lower.
`Cc1ccc(S(=O)(=O)Nc2ccccc2Nc2nc(-c3ccccc3)cs2)cc1` yielded a solubility (kinetic) of under 1 µg/mL.
Under `Cc1cccc(-c2cc(NC(=O)c3ccccc3C)n(-c3ccccc3)n2)c1` stands under 1 µg/mL; under `NC(=O)NCC(=O)N[C@H]1CC[C@H](Nc2nccc(-c3ccncc3)n2)C1`, over 35 µg/mL.
Take `CCOc1ccc(CCNC(=O)c2cc3ccccc3n2Cc2ccccn2)cc1OCC`: the solubility (kinetic) was under 1 µg/mL.
On to `O=[S+]([O-])(Nc1ccc(-c2ccccc2)cc1)c1ccc(NCc2ccc(Cl)cc2O)cc1`, for which the kinetic solubility was under 1 µg/mL.
Next, `CCCc1cc(=O)oc2c3c(c4c(c12)OC(C)(C)C=C4)OC(C)C(C)C3O` (stereo unspecified): under 1 µg/mL; `Cc1ccccc1-c1nc(CN2CCC(C(=O)NCCCN3CCOCC3)CC2)c(C)o1`: over 65 µg/mL; `O=C(Nc1nc(-c2ccccc2)cs1)c1ccncc1NS(=O)(=O)c1cccc(Cl)c1`: under 1 µg/mL.
The compound `CN(Cc1ccc(/C=C/C(=O)NO)cc1)CC12CC3CC(CC(C3)C1)C2` displayed a kinetic solubility of over 35 µg/mL.
